What was measured:
Type in all cases: cell-based
MDA-MB-231 = assay: Flow cytometry cell cycle analysis (propidium iodide DNA content); settings: MDA-MB-231 cells, 2 μM docetaxel, 24 hrs
Procedure: (§1) To confirm the results of the MTS assay, while further elucidating the link between LIMK1 expression and taxane sensitivity, the effects of taxane treatment on cell cycle were analyzed. […] Using flow cytometry to monitor DNA content, the percentages of cells in each phase of the cell cycle including the percentage of cells in the sub-G1 population (FIGS. 2A and B) were determined. […] Although after 24 hrs of treatment, the difference between cells lines became more apparent.
(§2) Cells were seeded into 60 mm dishes and transfected the following day with one of the previous constructs. […] At each time point, media and cells were collected, washed, and fixed in 70% EtOH at −20° C. for at least 30 mins. Cells were then washed and stained for 30 mins in PBS containing: 2% BSA; 0.1% Pluronic F-68 (Sigma); Propidium Iodide [80 ug/mL] (Sigma); RNase [100 ug/mL]. Data was collected using FACSCalibur and analyzed using Cell Quest and ModFit software.

P69 = assay: as above; settings: P69 cells, 2 μM docetaxel, 24 hrs
Procedure: as §1, §2

PC-3 = assay: as above; settings: PC-3 cells, 2 μM docetaxel, 24 hrs
Procedure: as §1
(§3) In order to confirm the implication of LIMK1 induced resistance to taxane treatment, the expression of LIMK1 in each cell line was altered. […] Sensitivity to the taxane treatment was monitored by MTS assay.
as §2

MCF7 = assay: as above; settings: MCF7 cells, 2 μM docetaxel, 24 hrs
Procedure: as §1, §3, §2

[1] = system: cleaved caspases 3, cleaved caspases 9 and cleaved PARP; assay: Western blot of apoptotic markers in docetaxel treated cell lysates
Excerpt: FIG. 5: Higher LIMK1 expression diminished Taxane induced apoptotic response. PC3 cells were transiently transfected with either LIMK1 targeting shRNA construct or scrambled shRNA construct. […] After 24 hrs of DTX treatment, cell were harvested and apoptotic markers were monitored by immunoblot. Cyt c Release: PC3 and MCF7 were transiently transfected with LIMK1 and Scrambled shRNA constructs, P69 cells were transiently transfected with LIMK1 expression vector, LIMK1-shRNA vector or control vector. […] Following treatment cells were harvested and cytosolic, mitochondrial, and nuclear fractions were isolated. Presence of Cyt c in the cytosol was monitored by immunoblot of cytosolic fraction. Densinometry was used to determine relative values.
Western blots were probed with the following antibodies: mouse anti-human-GAPDH (Sigma); mouse anti-FLAG (Sigma); rabbit anti-human-LIMK1 (Santa Cruz; Santa Cruz, Calif.); mouse anti-human LIMK1 (BD Pharmingen, San Diego, Calif.); rabbit anti-Cleaved Caspase 3/9 and anti-Cleaved PARP (Cell Signaling); rabbit anti-human-alpha-tubulin (Sigma). Mouse anti-Cytochrome c (R&D Systems). Rabbit anti-Prohibitin (Abcam). Rabbit anti-Bax (Santa Cruz). Rabbit anti-Bcl2 (Cell Signaling)

CC(=O)O[C@@]12CO[C@@H]1C[C@H](O)[C@@]1(C)C(=O)[C@H](O)C3=C(C)[C@@H](OC(=O)[C@H](O)[C@@H](NC(=O)OC(C)(C)C)c4ccccc4)C[C@@](O)([C@@H](OC(=O)c4ccccc4)[C@H]21)C3(C)C [docetaxel]
sub-G1 population (MDA-MB-231): 25% | sub-G1 population (P69): 15% | sub-G1 population (PC-3): 6% | sub-G1 population (MCF7): 5% | cleaved PARP [1]: increased levels | cleaved caspases 3 [1]: increased levels | cleaved caspases 9 [1]: increased levels
